{"source": "paper PMC8689225", "about": "“Cardiac ryanodine receptor N-terminal region biosensors identify novel inhibitors via FRET-based high-throughput screening” (The Journal of Biological Chemistry, 2021)", "type_in_all_cases": "cell-based", "key": {"[1]": {"system": "rat skeletal muscle fibers", "assay": "Electrically evoked Ca2+ transients in skinned skeletal muscle fibers", "conditions": "10 μM FA or 1 mM tetracaine, 1 Hz", "from_the_text": "Mechanically skinned fibers were isolated, mounted in a custom chamber, and bathed in a resting physiological solution containing rhod-2, as previously described ([21]). The Ca^2+-sensitive dye rhod-2 was used to track cytosolic Ca^2+ transients when exposed to electrical stimulation. Field pulses at 1 Hz frequency and 4 ms in duration were applied across platinum electrodes parallel to the long axis of the fiber. Imaging for electrical stimulation experiments was in xt mode, at a rate of 2 ms.line^−1. DMSO vehicle (0.01%), FA (10 μM), and tetracaine were added to the physiological solution. Each treatment was applied precisely at the seventh successive Ca^2+ transient."}, "RyR1": {"target": "T1, RyR1 (Rattus norvegicus, UniProt F1LMY4)", "T1 construct": "from tissue; host or cells: Wistar rat extensor digitorum longus (EDL), mechanically skinned single fibres", "T1 sequence (F1LMY4 whole entry)": "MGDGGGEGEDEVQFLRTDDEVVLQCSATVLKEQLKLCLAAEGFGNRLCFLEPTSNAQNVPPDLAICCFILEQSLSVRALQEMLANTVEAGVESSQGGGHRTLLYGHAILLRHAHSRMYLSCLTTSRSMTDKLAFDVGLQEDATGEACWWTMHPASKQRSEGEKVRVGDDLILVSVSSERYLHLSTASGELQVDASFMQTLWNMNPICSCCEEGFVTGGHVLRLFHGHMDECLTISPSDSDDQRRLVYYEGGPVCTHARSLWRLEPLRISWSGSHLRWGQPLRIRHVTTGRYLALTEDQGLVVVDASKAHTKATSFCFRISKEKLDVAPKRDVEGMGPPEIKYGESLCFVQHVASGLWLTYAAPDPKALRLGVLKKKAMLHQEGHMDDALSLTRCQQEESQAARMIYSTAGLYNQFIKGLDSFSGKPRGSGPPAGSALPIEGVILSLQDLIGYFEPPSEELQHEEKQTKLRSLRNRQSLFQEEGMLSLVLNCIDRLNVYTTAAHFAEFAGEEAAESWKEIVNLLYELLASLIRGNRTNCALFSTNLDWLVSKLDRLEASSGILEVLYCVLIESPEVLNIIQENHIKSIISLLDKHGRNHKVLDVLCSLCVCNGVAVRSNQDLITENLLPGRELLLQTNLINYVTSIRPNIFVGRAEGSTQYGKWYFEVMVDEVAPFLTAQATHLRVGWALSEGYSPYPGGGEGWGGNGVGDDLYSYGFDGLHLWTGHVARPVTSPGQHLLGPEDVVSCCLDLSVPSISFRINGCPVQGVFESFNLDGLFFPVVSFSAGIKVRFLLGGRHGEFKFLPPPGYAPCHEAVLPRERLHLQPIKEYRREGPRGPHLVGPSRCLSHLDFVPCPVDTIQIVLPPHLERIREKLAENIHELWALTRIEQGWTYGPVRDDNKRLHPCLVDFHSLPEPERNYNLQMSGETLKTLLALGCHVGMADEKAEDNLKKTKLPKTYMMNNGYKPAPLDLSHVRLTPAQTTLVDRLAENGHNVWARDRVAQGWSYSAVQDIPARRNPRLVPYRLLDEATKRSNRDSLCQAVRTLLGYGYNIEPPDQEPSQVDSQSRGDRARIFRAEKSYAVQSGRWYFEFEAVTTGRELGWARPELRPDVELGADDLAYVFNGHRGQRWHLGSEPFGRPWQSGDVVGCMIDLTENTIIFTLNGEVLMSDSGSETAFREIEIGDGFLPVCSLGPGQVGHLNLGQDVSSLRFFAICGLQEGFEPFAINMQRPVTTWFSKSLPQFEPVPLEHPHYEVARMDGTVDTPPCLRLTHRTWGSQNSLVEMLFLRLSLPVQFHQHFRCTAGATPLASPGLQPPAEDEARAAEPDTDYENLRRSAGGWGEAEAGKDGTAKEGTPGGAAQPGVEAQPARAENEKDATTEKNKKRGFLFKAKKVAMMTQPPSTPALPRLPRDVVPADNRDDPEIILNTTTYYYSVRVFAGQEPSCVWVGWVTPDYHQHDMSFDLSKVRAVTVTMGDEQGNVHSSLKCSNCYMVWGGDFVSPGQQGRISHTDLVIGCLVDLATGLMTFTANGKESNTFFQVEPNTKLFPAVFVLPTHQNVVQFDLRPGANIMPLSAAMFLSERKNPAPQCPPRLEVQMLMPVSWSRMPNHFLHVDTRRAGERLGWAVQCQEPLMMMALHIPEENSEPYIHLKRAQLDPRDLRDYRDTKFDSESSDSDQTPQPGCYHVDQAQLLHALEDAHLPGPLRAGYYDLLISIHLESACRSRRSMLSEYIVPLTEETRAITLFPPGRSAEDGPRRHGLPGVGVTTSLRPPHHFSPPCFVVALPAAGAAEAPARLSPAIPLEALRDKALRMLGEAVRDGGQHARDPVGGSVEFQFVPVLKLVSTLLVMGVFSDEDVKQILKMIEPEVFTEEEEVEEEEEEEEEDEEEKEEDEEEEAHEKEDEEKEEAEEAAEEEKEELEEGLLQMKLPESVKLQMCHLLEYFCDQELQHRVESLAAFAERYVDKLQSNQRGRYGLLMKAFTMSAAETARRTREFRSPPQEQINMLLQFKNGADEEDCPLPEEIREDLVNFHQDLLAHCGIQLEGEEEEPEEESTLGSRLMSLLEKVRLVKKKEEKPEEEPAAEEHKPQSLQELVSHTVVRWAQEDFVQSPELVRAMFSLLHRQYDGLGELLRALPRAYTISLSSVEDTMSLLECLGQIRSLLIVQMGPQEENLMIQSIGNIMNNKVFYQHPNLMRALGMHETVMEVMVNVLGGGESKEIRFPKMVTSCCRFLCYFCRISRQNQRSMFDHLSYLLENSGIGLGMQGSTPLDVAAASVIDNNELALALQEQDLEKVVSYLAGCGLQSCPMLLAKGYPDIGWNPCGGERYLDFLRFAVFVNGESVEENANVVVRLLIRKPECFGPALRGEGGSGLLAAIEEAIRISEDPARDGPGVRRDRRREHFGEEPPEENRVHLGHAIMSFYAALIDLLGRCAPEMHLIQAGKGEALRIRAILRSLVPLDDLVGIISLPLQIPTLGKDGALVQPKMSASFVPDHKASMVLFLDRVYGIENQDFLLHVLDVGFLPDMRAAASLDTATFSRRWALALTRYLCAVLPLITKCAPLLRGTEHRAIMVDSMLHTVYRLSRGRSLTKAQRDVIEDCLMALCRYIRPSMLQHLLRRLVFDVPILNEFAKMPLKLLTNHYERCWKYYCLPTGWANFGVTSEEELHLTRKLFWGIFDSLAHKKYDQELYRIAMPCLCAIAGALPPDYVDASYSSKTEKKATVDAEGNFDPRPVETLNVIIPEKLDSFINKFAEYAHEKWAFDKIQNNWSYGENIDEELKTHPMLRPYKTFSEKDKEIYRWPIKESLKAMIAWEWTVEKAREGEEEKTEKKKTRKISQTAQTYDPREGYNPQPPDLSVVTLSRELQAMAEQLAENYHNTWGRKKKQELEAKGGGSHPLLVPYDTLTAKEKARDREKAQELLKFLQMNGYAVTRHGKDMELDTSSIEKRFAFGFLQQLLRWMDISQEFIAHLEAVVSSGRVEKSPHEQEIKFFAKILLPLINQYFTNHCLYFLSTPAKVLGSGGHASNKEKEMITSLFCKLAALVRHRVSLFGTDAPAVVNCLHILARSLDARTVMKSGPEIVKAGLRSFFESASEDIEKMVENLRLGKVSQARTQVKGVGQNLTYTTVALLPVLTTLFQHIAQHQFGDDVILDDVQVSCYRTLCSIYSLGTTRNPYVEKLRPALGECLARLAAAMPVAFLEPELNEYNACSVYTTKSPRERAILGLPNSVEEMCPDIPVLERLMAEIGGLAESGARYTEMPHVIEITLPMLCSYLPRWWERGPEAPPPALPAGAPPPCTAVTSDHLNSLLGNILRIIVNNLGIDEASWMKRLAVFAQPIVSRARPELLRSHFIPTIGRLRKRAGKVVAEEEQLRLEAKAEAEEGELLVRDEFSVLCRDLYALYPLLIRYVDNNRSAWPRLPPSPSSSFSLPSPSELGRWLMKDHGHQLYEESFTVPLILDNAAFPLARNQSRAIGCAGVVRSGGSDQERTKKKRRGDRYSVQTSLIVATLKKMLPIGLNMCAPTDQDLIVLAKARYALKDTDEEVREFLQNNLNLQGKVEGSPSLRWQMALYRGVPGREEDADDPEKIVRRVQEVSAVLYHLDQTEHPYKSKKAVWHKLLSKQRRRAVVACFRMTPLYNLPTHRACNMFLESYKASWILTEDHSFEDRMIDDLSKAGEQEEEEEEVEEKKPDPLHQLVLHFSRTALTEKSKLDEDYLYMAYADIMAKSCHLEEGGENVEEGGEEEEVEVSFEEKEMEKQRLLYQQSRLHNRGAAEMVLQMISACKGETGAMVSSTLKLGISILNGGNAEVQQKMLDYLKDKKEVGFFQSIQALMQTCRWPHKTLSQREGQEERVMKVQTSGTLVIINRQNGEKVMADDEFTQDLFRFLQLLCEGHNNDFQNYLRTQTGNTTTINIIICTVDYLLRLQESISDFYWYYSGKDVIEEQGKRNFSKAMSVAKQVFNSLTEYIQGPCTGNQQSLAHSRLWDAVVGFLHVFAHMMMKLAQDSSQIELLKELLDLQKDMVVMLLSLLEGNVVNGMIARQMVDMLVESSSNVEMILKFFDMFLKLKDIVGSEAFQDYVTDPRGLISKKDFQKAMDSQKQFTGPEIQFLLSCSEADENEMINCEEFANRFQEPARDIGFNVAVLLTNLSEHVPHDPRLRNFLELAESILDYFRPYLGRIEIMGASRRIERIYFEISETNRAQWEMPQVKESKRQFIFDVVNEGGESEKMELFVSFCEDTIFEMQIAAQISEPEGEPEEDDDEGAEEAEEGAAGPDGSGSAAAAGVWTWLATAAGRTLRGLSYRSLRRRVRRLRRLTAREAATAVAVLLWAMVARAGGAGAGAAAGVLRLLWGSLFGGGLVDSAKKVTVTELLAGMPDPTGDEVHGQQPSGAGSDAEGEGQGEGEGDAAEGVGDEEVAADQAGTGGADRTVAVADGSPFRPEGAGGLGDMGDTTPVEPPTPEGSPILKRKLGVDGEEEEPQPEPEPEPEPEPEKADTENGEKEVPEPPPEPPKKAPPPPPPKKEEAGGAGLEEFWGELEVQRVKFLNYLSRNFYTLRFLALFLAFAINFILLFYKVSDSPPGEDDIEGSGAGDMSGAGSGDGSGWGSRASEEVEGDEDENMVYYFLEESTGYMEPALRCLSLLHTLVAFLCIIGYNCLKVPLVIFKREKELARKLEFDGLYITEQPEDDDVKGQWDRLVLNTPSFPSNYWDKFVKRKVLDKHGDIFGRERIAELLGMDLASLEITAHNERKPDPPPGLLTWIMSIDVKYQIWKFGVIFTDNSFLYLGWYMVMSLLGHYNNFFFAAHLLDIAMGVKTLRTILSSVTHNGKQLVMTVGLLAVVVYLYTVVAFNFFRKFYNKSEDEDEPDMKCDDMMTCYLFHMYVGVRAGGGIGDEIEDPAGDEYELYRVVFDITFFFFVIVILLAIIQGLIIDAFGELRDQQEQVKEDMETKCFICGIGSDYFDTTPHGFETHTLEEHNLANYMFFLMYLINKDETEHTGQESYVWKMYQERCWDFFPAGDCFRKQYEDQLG", "assay": "t-tubule Ca2+ measurement of RyR1 leak in skinned skeletal muscle fibers", "conditions": "10 μM FA or 1 mM tetracaine, [Ca2+]cyto 200 nM", "method": "All experimental methods using rodents were approved by the Animal Ethics Committees at The University of Queensland and were performed in accordance with the relevant guidelines and regulations. Five-month-old Wistar rats (UQ Biological Resources) were euthanized by asphyxiation via CO2 exposure, and the extensor digitorum longus (EDL) was rapidly excised. Once dissected, muscles were pinned to Sylgard set in a Petri dish containing paraffin oil.\nBundles of fibers were isolated and exposed to an internal solution containing rhod-5N, as described previously ([47]). After 15 min incubation, single skeletal muscle fibers were mechanically skinned and mounted in a custom-made chamber. […] For tracking Ca^2+ movements across the t-system membrane, images were continuously recorded in xyt mode with an aspect ratio of 256 × 512, with the long aspect of the image parallel with that of the preparation. Temporal resolution of imaging in this mode where the fluorescence signal was within the borders of the fiber was 0.8 s.\nT-system rhod-5N fluorescence was converted to [Ca^2+]t-sys as previously described ([47]). To determine the effect of RyR modulators on the RyR Ca^2+ leak, isolated mechanically skinned fibers were continuously imaged as described above, to obtain a record of t-system rhod-5N fluorescence changes over time as the cytoplasmic solution bathing the fiber was changed. […]"}, "[2]": {"system": "intact mouse ventricular cardiomyocytes", "assay": "Ca2+ transients in intact ventricular cardiomyocytes paced at 1 Hz", "method": "Mouse ventricular cardiomyocytes were isolated enzymatically from hearts of male C57BL/6J mouse (10–12 weeks old, Jackson Laboratory) as previously described with minor modifications ([66]). Briefly, mice were injected with heparin (500 U/kg body weight) and anesthetized with isoflurane (2 to 5%) to a verified deep surgical plane, whereupon the heart was excised, resulting in euthanasia by exsanguination. Hearts were excised and retrogradely perfused with constant flow on a Langendorff apparatus (37 °C) with Ca^2+-free normal Tyrode’s solution, gassed with 100% O2. Collagenase type II (Worthington Biochemical Co) and protease type XIV (Sigma-Aldrich) were used for enzymatic digestion. […]\nCa^2+ activity was imaged via confocal microscopy (Bio-Rad, Radiance 2100, 40× objective) in the line scan mode (166 lines/s; ex 488 nm, em >505 nm). Ca^2+ sparks were recorded from ventricular cardiomyocytes permeabilized with saponin (50 μg/ml) for 1 min in internal solution containing (in mM) 10 HEPES, 1 EGTA, 1 free MgCl2 (with free [Ca^2+] adjusted to 50 nM using MaxChelator), 120 K-aspartate, 10 reduced glutathione, 5 ATP, 5 phosphocreatine di-Na, creatine phosphokinase 5 U/ml, and dextran (MW: 40,000) 8% at pH 7.20. […] Ca^2+ spark parameters were analyzed over a 10 s period from each line scan recording. […]"}}}
{"smiles": "CC(=O)O[C@H]1C[C@@]2(C)[C@@H](C[C@@H](O)[C@H]3[C@@]4(C)CC[C@@H](O)[C@@H](C)[C@@H]4CC[C@@]32C)/C1=C(\\CCC=C(C)C)C(=O)O", "note": "[FA, (2Z)-2-[(3R,4S,5S,8S,9S,10S,11R,13R,14S,16S)-16-acetyloxy-3,11-dihydroxy-4,8,10,14-tetramethyl-2,3,4,5,6,7,9,11,12,13,15,16-dodecahydro-1H-cyclopenta[a]phenanthren-17-ylidene]-6-methylhept-5-enoic acid]", "values": [{"measurement": "electrically induced Ca2+ transient amplitude", "setting": "[1]", "result": "did not have an effect"}, {"measurement": "steady-state [Ca2+]t-sys (RyR1 leak)", "setting": "RyR1", "result": "decreased"}, {"measurement": "cardiomyocytes with arrhythmogenic Ca2+ events (total paired measures)", "setting": "[2]; FA across all concentrations tested (0.01–10 μM), 6 min", "result": "10 of 12"}, {"measurement": "Ca2+ transient amplitudes", "setting": "[2]; even at very low [FA] (0.01 μM), pacing 1 Hz", "result": "some diminution"}]}
